This passage reports IC50, EC50 and AC50 results from ChEMBL document CHEMBL1201862, “PubChem BioAssay data set” (2004).

Activity calls are given as the source filed them.

For one assay, the target named is T1, Aminopeptidase N (Plasmodium falciparum FcB1/Columbia, UniProt O96935).
T1 sequence (O96935 whole entry): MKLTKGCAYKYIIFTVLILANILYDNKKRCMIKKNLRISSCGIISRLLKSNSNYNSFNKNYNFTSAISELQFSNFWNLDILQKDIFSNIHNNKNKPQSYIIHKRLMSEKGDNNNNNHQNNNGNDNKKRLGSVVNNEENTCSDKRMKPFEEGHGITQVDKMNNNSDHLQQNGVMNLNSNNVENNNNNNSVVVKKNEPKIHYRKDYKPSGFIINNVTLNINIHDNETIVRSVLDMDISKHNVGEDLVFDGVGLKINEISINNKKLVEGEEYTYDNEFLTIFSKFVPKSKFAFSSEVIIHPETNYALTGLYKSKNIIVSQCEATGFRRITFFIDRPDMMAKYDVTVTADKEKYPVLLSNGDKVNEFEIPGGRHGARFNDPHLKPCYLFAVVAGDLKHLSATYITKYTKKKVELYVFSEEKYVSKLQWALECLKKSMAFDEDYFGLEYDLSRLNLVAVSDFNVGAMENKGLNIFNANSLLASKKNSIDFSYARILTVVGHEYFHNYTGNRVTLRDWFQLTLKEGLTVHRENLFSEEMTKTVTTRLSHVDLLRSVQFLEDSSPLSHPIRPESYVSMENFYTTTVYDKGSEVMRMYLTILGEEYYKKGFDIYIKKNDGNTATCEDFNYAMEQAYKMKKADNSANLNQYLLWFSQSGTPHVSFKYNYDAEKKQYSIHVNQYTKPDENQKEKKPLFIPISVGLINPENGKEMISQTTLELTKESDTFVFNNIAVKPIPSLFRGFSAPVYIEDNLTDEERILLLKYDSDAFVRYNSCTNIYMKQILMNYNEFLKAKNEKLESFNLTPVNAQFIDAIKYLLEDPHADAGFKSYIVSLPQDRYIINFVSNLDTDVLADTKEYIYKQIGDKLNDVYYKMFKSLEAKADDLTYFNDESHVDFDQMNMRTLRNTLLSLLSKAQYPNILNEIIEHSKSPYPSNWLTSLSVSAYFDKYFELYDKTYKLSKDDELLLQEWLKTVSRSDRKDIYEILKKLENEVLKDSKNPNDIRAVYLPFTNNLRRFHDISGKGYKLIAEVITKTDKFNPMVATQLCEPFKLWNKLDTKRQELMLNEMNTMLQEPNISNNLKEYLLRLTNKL
The assay is described as follows: malaria alanyl aminopeptidase activity blockers – biochemical, fluorogenic H-Leu-NHMec substrate, 1536-well (AID 1445). Further details: species or system Plasmodium falciparum 3D7, 3D7.

Another assay addresses Procathepsin L (Homo sapiens, UniProt P07711).
Assay [1] can be described thus: NIH-3T3 fibroblast cytotoxicity, dose response, cytotoxicity control, cell-based, fluorescence, Alamar Blue, secondary assay (AID 2327).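 Also: NIH-3T3 mouse fibroblasts cultured with fluconazole at 8 µg/mL.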 The assay is classed as functional. Background: Alamar Blue is a resazurin reagent that responds to reducing activity.
The target in the next assay is T2, Aspartyl aminopeptidase (Plasmodium falciparum 3D7, UniProt Q8I2J3).
T2 sequence (Q8I2J3 whole entry): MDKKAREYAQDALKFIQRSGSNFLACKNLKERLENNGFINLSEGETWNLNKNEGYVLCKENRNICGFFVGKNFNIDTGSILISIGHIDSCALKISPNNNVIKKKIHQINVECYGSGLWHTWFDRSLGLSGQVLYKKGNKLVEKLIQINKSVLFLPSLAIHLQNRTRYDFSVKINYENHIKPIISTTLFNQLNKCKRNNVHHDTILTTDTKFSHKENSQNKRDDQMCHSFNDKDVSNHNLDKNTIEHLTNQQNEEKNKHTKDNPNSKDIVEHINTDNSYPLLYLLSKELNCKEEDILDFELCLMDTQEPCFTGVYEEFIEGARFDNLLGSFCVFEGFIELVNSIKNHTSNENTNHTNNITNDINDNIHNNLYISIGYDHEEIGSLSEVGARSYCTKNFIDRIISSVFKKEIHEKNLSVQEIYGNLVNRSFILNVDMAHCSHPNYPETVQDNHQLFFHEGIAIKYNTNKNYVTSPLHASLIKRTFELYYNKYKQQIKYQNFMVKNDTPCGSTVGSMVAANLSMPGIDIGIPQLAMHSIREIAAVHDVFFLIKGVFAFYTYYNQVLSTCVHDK

A short description of assay [2]: fluconazole-exposed Candida albicans growth modulators – fluorescence, retest, confirmation (AID 2467). In kind it is functional, cell-based.
The target of the next assay is T3, Leucine aminopeptidase (Plasmodium falciparum 3D7, UniProt Q8IL11).
T3 sequence (Q8IL11 whole entry): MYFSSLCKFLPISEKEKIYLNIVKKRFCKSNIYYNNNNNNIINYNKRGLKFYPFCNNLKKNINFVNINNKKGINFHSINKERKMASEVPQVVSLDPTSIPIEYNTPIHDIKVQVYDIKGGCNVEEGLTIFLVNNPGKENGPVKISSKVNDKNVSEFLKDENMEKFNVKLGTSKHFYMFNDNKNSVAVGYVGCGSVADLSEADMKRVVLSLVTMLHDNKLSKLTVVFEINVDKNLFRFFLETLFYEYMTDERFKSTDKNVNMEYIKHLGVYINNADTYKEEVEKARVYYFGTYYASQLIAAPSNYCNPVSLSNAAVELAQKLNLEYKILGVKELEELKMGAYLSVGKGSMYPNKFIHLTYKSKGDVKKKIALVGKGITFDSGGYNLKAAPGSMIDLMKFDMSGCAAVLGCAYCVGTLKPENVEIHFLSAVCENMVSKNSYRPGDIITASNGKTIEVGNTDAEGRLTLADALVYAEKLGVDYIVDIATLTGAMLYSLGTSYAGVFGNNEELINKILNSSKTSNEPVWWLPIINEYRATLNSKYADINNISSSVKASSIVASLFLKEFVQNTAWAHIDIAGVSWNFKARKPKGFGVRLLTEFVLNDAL
The assay is described as follows: P. falciparum M17LAP inhibitors, primary screen, biochemical, fluorogenic H-Leu-NHMec substrate, 1536-well (AID 1619). The assay is classed as functional.

Assay [3] has as its target T4, Histone-lysine N-methyltransferase NSD2 (Homo sapiens, UniProt O96028).
T4 sequence (O96028 whole entry): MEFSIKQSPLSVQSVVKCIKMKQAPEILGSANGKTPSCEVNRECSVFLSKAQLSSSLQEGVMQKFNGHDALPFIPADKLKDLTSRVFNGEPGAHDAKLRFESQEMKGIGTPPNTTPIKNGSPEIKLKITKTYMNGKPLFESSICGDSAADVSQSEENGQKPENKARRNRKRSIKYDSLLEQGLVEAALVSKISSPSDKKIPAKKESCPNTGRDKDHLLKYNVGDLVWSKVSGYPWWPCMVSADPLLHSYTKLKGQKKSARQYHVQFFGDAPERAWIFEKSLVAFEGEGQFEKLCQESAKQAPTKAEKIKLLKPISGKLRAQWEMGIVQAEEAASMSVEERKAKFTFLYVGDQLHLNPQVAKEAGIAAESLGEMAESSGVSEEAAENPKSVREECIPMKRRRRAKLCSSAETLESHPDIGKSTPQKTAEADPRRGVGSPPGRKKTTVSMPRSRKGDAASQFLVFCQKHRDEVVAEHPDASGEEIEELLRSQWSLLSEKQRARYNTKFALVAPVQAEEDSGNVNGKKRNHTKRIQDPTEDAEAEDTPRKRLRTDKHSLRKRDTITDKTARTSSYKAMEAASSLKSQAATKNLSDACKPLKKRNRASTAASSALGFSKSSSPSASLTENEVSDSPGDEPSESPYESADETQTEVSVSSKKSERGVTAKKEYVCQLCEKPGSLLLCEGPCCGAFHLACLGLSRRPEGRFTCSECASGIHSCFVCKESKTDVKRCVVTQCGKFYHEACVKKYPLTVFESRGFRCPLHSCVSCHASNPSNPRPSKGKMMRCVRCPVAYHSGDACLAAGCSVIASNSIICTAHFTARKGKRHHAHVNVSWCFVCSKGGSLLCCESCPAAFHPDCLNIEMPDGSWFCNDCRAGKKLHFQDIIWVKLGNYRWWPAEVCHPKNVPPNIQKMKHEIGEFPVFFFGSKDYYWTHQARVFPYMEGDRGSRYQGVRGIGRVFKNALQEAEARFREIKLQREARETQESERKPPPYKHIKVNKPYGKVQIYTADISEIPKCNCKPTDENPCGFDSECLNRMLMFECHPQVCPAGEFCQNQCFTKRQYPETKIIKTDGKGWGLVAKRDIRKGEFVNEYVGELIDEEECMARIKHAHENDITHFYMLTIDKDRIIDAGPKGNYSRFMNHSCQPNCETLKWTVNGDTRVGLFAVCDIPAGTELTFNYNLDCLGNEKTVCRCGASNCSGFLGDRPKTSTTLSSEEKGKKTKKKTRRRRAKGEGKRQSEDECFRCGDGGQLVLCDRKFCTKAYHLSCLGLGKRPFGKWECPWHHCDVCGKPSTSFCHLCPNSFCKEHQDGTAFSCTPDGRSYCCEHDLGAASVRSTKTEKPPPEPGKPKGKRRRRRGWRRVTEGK
The assay is classed as biochemical.

Assay [4] has as its target Glucose-6-phosphate 1-dehydrogenase (Homo sapiens, UniProt P11413). The assay is described as follows: inhibition of Homo sapiens G6PD, dose series – biochemical, fluorescence, selectivity assay for P. falciparum G6PD inhibitor project, dose response (AID 504792). The assay is classed as functional.
For assay [5], the target named is T5, Mannose-6-phosphate isomerase (Homo sapiens, UniProt P34949).
T5 sequence (P34949 whole entry): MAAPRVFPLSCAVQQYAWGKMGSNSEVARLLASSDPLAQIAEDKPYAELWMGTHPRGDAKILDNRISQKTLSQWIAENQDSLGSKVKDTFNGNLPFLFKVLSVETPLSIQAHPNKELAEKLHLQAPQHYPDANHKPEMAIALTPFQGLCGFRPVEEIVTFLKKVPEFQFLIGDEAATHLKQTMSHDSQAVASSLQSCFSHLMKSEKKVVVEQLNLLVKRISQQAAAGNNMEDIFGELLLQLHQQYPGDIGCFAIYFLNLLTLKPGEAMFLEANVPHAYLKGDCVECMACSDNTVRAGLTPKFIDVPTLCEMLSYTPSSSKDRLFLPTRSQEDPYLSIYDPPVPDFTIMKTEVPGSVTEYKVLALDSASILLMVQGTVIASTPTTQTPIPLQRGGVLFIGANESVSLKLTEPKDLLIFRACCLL
As to the kind of experiment: MPI inhibition at elevated mannose 6-phosphate – biochemical, fluorescence intensity, high mannose 6-phosphate, primary screen (AID 1220).

For a further assay, the target named is Large T antigen (Simian virus 40, UniProt P03070). The assay is classed as functional, Betapolyomavirus macacae.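 Also: Confirmatory-stage PubChem screen for compounds that inhibit SV40 T antigen.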
Large T antigen, sequence (P03070 whole entry): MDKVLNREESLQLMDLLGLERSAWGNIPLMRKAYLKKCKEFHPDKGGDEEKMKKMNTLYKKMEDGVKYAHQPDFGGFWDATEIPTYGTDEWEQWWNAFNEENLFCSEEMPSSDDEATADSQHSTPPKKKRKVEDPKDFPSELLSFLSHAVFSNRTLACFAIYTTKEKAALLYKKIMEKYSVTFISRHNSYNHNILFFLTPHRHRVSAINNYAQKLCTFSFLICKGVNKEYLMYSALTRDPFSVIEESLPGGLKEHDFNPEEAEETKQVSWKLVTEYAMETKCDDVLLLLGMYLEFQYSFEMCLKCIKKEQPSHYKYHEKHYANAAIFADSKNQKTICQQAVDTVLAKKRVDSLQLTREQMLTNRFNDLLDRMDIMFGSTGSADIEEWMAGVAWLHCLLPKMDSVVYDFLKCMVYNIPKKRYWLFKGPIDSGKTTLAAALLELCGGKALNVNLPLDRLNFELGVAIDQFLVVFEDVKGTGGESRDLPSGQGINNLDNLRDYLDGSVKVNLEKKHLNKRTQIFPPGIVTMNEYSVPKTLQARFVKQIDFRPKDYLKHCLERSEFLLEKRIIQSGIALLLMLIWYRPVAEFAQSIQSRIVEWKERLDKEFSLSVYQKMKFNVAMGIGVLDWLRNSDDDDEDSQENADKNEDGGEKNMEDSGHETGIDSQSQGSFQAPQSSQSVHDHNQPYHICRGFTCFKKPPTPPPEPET

Procathepsin L, sequence (P07711 whole entry): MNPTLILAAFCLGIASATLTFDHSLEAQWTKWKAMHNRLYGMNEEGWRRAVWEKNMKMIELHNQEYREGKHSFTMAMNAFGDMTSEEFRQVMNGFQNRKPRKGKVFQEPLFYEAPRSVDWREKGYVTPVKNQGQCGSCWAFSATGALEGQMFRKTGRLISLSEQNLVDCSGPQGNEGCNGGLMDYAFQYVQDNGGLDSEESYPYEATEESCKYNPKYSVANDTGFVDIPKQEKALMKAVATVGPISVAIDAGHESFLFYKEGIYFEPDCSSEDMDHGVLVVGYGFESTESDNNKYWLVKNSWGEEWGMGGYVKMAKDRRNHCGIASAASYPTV
Glucose-6-phosphate 1-dehydrogenase, sequence (P11413 whole entry): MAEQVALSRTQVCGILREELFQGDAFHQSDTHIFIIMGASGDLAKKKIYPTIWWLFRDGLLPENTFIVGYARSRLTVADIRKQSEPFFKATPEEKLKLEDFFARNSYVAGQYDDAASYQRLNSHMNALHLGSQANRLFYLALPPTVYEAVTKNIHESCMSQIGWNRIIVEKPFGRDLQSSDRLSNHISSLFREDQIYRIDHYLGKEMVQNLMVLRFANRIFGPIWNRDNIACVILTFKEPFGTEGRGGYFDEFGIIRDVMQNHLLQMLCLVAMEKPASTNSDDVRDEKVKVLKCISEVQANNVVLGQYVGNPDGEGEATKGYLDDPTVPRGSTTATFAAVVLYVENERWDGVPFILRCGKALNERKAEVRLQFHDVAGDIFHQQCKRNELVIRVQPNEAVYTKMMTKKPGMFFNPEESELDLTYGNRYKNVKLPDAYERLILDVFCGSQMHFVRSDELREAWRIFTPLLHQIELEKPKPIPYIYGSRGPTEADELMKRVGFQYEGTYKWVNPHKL

What is called IC50 is the point on the concentration scale where inhibition reaches its midpoint. As for `CCOc1cc(/C=C2\N=C(SC)SC2=O)cc([N+](=O)[O-])c1OC(C)=O`, the IC50 at Aminopeptidase N was 26.5 µM (active).
As a reminder, the EC50 is the concentration giving half of the maximal effect. The AC50 is the concentration giving half of the maximal activity seen. `COc1cccc2c(SCC(=O)N/N=C/c3ccc(O)c(O)c3)cc(C)nc12`: the IC50 against Procathepsin L was > 59.6 µM (not active); at Aspartyl aminopeptidase it was 2.01 µM (active); at Leucine aminopeptidase it was 16.2 µM (active). For the same compound, the EC50 is 26.3 µM (active) in assay [1] and > 38 µM (not active) in assay [2]. Further, the AC50 in assay [3] was 10.4 µM (active).
For `C[C@]12CC[C@@H]3c4ccc(O)c(O)c4CC[C@H]3[C@@H]1CC[C@@H]2O`, the IC50 was > 59.6 µM (not active) on Procathepsin L, 1.22 µM (active) on Aspartyl aminopeptidase, 29.1 µM (inactive) in assay [4] and 29 µM (active) in [5].
Regarding `COc1cc(/C=C2\SC(=S)N(NS(=O)(=O)c3ccc(C)cc3)C2=O)ccc1O`, the IC50 at Aminopeptidase N was 19.2 µM (active); at Large T antigen, 10.1 µM (active); at Leucine aminopeptidase, 27.1 µM (active).
